For orientation: IC50 means the concentration that gives 50% inhibition.

The results in this text go back to PMC12096669, “Structural isomerisation affects the antitubercular activity of adamantyl-isoxyl adducts” (Journal of Enzyme Inhibition and Medicinal Chemistry, 2025).

Converted amounts (≈) assume the structure as drawn. Read-outs that look alike come from different tables or passages of the source. Bounds are passed on as bounds.

Holding throughout (assay type): cell-based
In one test the test system is S. pyogenes NCTC 8198. The experiment in a line: Non-mycobacterial REMA assay. To be noted: Streptococcus pyogenes, NCTC8198, read-out: Minimum inhibitory concentration 95%.
Another test deals with E. cloacae NCTC 10005. The experiment in a line: Non-mycobacterial REMA assay. To be noted: Enterobacter cloacae, NCTC10005, read-out: Minimum inhibitory concentration 95%.
For a further test, the system named is B. cereus NCTC 7464. The experiment in a line: Non-mycobacterial REMA assay. The following applies: Bacillus cereus, NCTC7464, read-out: Minimum inhibitory concentration 95%.
The test system of another test is S. aureus NCTC 2981. The experiment in a line: Non-mycobacterial REMA assay. To be noted: Staphylococcus aureus, NCTC2981, read-out: Minimum inhibitory concentration 95%.
A further test deals with E. faecium NCTC 7171. The experiment in a line: Non-mycobacterial REMA assay. To be noted: Enterococcus faecium, NCTC7171, read-out: Minimum inhibitory concentration 95%.
In another test the test system is K. pneumoniae NCTC 9633. The experiment in a line: Non-mycobacterial REMA assay. The following applies: Klebsiella pneumoniae, NCTC9633, read-out: Minimum inhibitory concentration 95%.
The subject of the next test is E. faecalis NCTC 775. The test can be described thus: Non-mycobacterial REMA assay. To be noted: Enterococcus faecalis, NCTC775, read-out: Minimum inhibitory concentration 95%.
The subject of test [1] is AC10 hybrid adult ventricular cardiomyocytes. The test can be described thus: MTS cytotoxicity assay, cardiomyocytes. To be noted: Homo sapiens, AC10 cardiac, 96 h, read-out: MTS percentage survival @ 100 µM. (Tetrazolium dyes change colour on reduction, which living cells bring about.)
Another test deals with Mtb mc^27902 pMV261. The experiment in a line: microbe, parasite or virus in culture. To be noted: Mycobacterium tuberculosis.
A further test has as its system S. agalactiae NCTC 8181. The experiment in a line: Non-mycobacterial REMA assay. To be noted: Streptococcus agalactiae, NCTC8181, read-out: Minimum inhibitory concentration 95%.
For the next test, the system named is A. baumannii NCTC 12156. The test can be described thus: Non-mycobacterial REMA assay. To be noted: Acinetobacter baumannii, NCTC12156, read-out: Minimum inhibitory concentration 95%.
For a further test, the system named is S. enterica NCTC 6754. The test can be described thus: Non-mycobacterial REMA assay. To be noted: Salmonella enterica, NCTC6754, read-out: Minimum inhibitory concentration 95%. Here is the method: (§1) Bacterial minimum inhibition concentrations (MIC) were determined using the Resazurin Microtiter Assay (REMA) method according to Palomino et al.[28] Stock solutions of the tested compounds were prepared in sterile dimethyl sulfoxide (DMSO), then diluted in 7H9OPALPen^1Cyc^10(Kan^25) to obtain a final drug concentration range of 32–0.032 μg/mL. A suspension of the test Mycobacterium was cultured in 7H9OPALPen^1Cyc^10(Kan^25) containing 0.05% v/v Tween^80 for one week at 37 °C, 5% CO2. The bacterial suspension was adjusted to 0.5 McFarland and diluted in 7H9OPALPen^1Cyc^10(Kan^25) 1:25. 100 μL of the inoculum was added to each well of a 96-well microplate together with 100 μL of the compound titration. The plate was incubated at 37 °C, 5% CO2. After 5 days, 10.5 μL 0.1% (w/v) sterile resazurin (solubilised in sterile PBS containing 0.02% v/v Tween^80) was added. Reduced resazurin was detected using fluorescence (Ex/Em 530/590 nm) in a FLUOstar Optima, BMG Labtech. All titre measurements were plotted in SigmaPlot™ and 4-parameter logistic (4PL) model regressions conducted. The relative MIC95 of each curve was calculated and averaged (Table 1). Testing was performed in duplicate with two independent biological repeats. […] Though, for these cultures, dilutions were performed at 1:125 prior to inoculation of the plate and incubation for 4 h (Supplementary Table 3). Known antitubercular agents used in this study were rifampicin (RIF), isoniazid (INH), ISO, EMB, ethionamide (ETH), linezolid (LZD), delamanid (DEL) and moxifloxacin (MOX).

Another test deals with E. coli K12. The experiment in a line: Non-mycobacterial REMA assay. To be noted: Escherichia coli, read-out: Minimum inhibitory concentration 95%. Here is the method:
as §1

In another test the test system is P. aeruginosa DSM 19880. The experiment in a line: Non-mycobacterial REMA assay. The following applies: Pseudomonas aeruginosa, DSM19880, read-out: Minimum inhibitory concentration 95%.
In test [2] the test system is HepG2 human liver cancer cell line. The experiment in a line: MTS cytotoxicity assay, liver cells. To be noted: 96 h, read-out: MTS percentage survival @ 100 µM.
The subject of test [3] is RAW264.7 murine macrophage cells. The experiment in a line: cells. The following applies: Mus musculus; for viability at 100 µM: RAW264.7, 96 h, read-out: MTS percentage survival @ 100 µM.
[4] abbreviates: mc^27902 pMV261, REMA, read-out: Mtb MIC95.
The mark [5] stands for this setting: RAW264.7 macrophage, 100 µM, 96 h.

`CC[C@@H](CO)NCCN[C@@H](CC)CO` [EMB, Ethambutol]: the MIC in the test on S. pyogenes NCTC 8198, in the test with E. cloacae NCTC 10005, in the test with B. cereus NCTC 7464, with S. aureus NCTC 2981, in the test on E. faecium NCTC 7171 and in the test on K. pneumoniae NCTC 9633 was above 32 µg/mL each time. Besides, the MIC was above 32 µg/mL with E. faecalis NCTC 775; 1.99 µg/mL in the test with Mtb mc^27902 pMV261 (setting [4]); above 32 µg/mL with S. agalactiae NCTC 8181; above 32 µg/mL with A. baumannii NCTC 12156; above 32 µg/mL with S. enterica NCTC 6754; above 32 µg/mL with E. coli K12. Further, in the test on P. aeruginosa DSM 19880, the MIC was above 32 µg/mL. For the same compound, the viability at 100 µM was 93.7 ± 2.7% in [1], 95.2 ± 6% in [2] and 88.5 ± 8.6% in [3] (setting [5]).
Take `CCc1cc(C(N)=S)ccn1` [ETH, ethionamide]: the MIC in the test with S. pyogenes NCTC 8198, with E. cloacae NCTC 10005, with B. cereus NCTC 7464, in the test on S. aureus NCTC 2981, in the test with E. faecium NCTC 7171 and in the test on K. pneumoniae NCTC 9633 was above 32 µg/mL throughout. The MIC is above 32 µg/mL in the test with E. faecalis NCTC 775; 1.05 µg/mL in the test with Mtb mc^27902 pMV261 (read-out: Mtb MIC95); above 32 µg/mL with S. agalactiae NCTC 8181; above 32 µg/mL in the test with A. baumannii NCTC 12156; above 32 µg/mL with S. enterica NCTC 6754; above 32 µg/mL in the test on E. coli K12. Besides, the MIC with P. aeruginosa DSM 19880 is above 32 µg/mL. In addition, the viability at 100 µM was found to be 90.5 ± 4.7% in test [1], 92.7 ± 7% in test [2] and 100 ± 5.6% in test [3].
Regarding `NNC(=O)c1ccncc1` [INH, isoniazid], the MIC in the test with S. pyogenes NCTC 8198, in the test with E. cloacae NCTC 10005, in the test on B. cereus NCTC 7464, in the test on S. aureus NCTC 2981, in the test with E. faecium NCTC 7171 and in the test on K. pneumoniae NCTC 9633 was above 32 µg/mL throughout. For the same compound, the MIC is above 32 µg/mL in the test on E. faecalis NCTC 775; 0.04 µg/mL in the test with Mtb mc^27902 pMV261 (setting [4]); above 32 µg/mL in the test on S. agalactiae NCTC 8181; above 32 µg/mL with A. baumannii NCTC 12156; above 32 µg/mL in the test on S. enterica NCTC 6754; above 32 µg/mL in the test on E. coli K12. For the same compound, the MIC in the test with P. aeruginosa DSM 19880 is above 32 µg/mL. Moreover, the viability at 100 µM in test [1] was 92.6 ± 1.2%; in [2], 97 ± 3.8%; in test [3] (setting [5]) it was 96.3 ± 2%.
For `CC(=O)NC[C@H]1CN(c2ccc(N3CCOCC3)c(F)c2)C(=O)O1` [LZD, linezolid], the MIC is 0.543 µg/mL (≈ 1.61 µM) in the test with S. pyogenes NCTC 8198; above 32 µg/mL in the test on E. cloacae NCTC 10005; 1.75 µg/mL (≈ 5.2 µM) with B. cereus NCTC 7464; 23.7 µg/mL (≈ 70.3 µM) in the test with S. aureus NCTC 2981; 0.158 µg/mL (≈ 0.468 µM) in the test with E. faecium NCTC 7171; above 32 µg/mL in the test on K. pneumoniae NCTC 9633. Also, the MIC was determined as 0.921 µg/mL (≈ 2.73 µM) in the test with E. faecalis NCTC 775; 0.91 µg/mL in the test on Mtb mc^27902 pMV261 (setting [4]); 0.55 µg/mL in the test on Mtb mc^27902 pMV261 (values used for the SI, in brackets, […], read-out: MIC95); 1.63 µM in the test on Mtb mc^27902 pMV261 (values used for the SI, […], read-out: MIC95); 2.1 µg/mL (≈ 6.23 µM) in the test with S. agalactiae NCTC 8181; 31.1 µg/mL (≈ 92.1 µM) in the test on A. baumannii NCTC 12156. For the same compound, the MIC with S. enterica NCTC 6754, in the test with E. coli K12 and in the test with P. aeruginosa DSM 19880 was above 32 µg/mL throughout. For the same compound, the viability at 100 µM in test [1] was determined as 103 ± 1.8%; in [2], 105 ± 5.1%; in [3] (setting [5]), 38.3%. In addition, in test [3] (RAW264.7 macrophages, 0 to 100 µM, read-out: IC50 (cell viability, MTS assay)), the IC50 amounted to 16.2 µM.
As to `CO[C@H]1/C=C/O[C@@]2(C)Oc3c(C)c(O)c4c(O)c(c(/C=N/N5CCN(C)CC5)c(O)c4c3C2=O)NC(=O)/C(C)=C\C=C\[C@H](C)[C@H](O)[C@@H](C)[C@@H](O)[C@@H](C)[C@H](OC(C)=O)[C@@H]1C` [RIF, rifampicin], the MIC was 6.16 µg/mL (≈ 7.48 µM) with S. pyogenes NCTC 8198; above 12.8 µg/mL with E. cloacae NCTC 10005; 0.045 µg/mL (≈ 0.0547 µM) in the test with B. cereus NCTC 7464; below 0.0125 µg/mL in the test on S. aureus NCTC 2981; 1.73 µg/mL (≈ 2.11 µM) in the test with E. faecium NCTC 7171; above 12.8 µg/mL in the test on K. pneumoniae NCTC 9633. Besides, the MIC in the test with E. faecalis NCTC 775 was above 12.8 µg/mL; in the test on Mtb mc^27902 pMV261 (setting [4]), 0.04 µg/mL; in the test with S. agalactiae NCTC 8181, 0.08 µg/mL (≈ 0.0972 µM); in the test with A. baumannii NCTC 12156, 1.36 µg/mL (≈ 1.66 µM); with S. enterica NCTC 6754, 12.8 µg/mL (≈ 15.5 µM); with E. coli K12, 3.03 µg/mL (≈ 3.69 µM). In addition, the MIC in the test with P. aeruginosa DSM 19880 is above 12.8 µg/mL. The results for the viability at 100 µM in [1], in [2] and in test [3] (setting [5]) were 40.7 ± 6.6%, 47.7 ± 3.2% and 66.3 ± 5%, respectively.
